This note sets out measurements from US6121457A, “Compositions and methods using novel substituted imidazolium lipids” (Megabios Corporation, priority 1998, dated 2000).

A short description of series [1]: IV toleration and necropsy observations in rabbits. The class given is in vivo, rabbit. The conditions noted are these: just the lipid, about 24 h. The procedure:
(§1) Pilot studies were conducted to assess the suitability of rabbits as a development model for delivery of lipid:DNA complexes. The study confirmed that rabbits offer the ability to express transfected genes as well as display some anticipated toxicity endpoints.
(§2) A 2 mL blood sample is collected immediately prior to dose delivery for serum collection and another 2 mL for a CBC/clinical chemistry screen. Sufficient blood is also collected at necropsy to perform a CBC and clinical chemistry screen and preserve serum (minimum of 8 mL).
(§3) Approximately 24 hours after dosing the animals are euthanized using a barbiturate overdose. Following euthanasia, body weights are determined and an examination is made for the presence of pleural fluid. Any fluid present is harvested while avoiding blood contamination. Total protein and albumin levels are determined on the pleural fluid.
(§4) Tissues are collected and preserved as follows: lung tissue (8 vials in liquid nitrogen, 2 lobes infused with formalin, and optionally 2 Whirlpaks® in dry ice); liver tissue (multiple sites in formalin); kidney tissue (multiple sites in formalin); spleen tissue (multiple sites in formalin); heart tissue (multiple sites in formalin); and multiple serum samples (6 mL minimum in dry ice).

The test system of a further series is CAT protein in lungs. Kind of series: IV gene transfer in mice: lung CAT reporter expression (plasmid p4119) by ELISA. The class given is in vivo, ICR female mice. The conditions noted are these: for mean CAT expression level (CAT ELISA): formulated with cholesterol and plasmid p4119, IV, five mice each, value followed by +/- spread. The procedure:
This example provides an evaluation of the cationic lipid prepared in Example 1.
Two mice studies have been performed for the evaluation of cationic lipids of the present invention, in comparison with DOTIM (see, Liu, et al, Nature Biotechnology 15:167-173 (1997)). In brief, the lipid combinations were tested as carriers for gene transfer by intravenous delivery in ICR female mice (25 g), and expression was determined using the plasmid p4119 containing the CAT reporter gene under the control of the HCMV promoter. The lipids were dissolved in a mixture of chloroform and methanol (1:1). Lipid films of cationic and neutral lipid (either cholesterol or DLPE) at a 1:1 molar ratio were formed with a rotary evaporator. The films were hydrated with 5% dextrose in water (D5W) at room temperature and extruded through a series of membranes having pore sizes of 400 nm, 200 nm, and 50 nm.
DNA-liposome complexes were prepared at a 1:6 DNA:cationic lipid ratio (mg DNA per μmole cationic lipid) by adding the DNA, in a solution at 0.625 mg/mL concentration in D5W to the solution of liposomes, in an equal volume, with constant stirring, using a Hamilton Dilutor 540B (Hamilton, Reno, Nev.). DOTIM:cholesterol was used at a 1:6 DNA:cationic lipid ratio. The DNA solution was 0.3125 mg/mL DNA in D5W. The resulting complexes were sized using a Submicron Particle Sizer 370 (Nicomp, Santa Barbara, Calif.). Zeta potential was determined by a Zeta Plus, Zeta Potential Analyzer (Brookhaven Instruments Corp.). A total of 5 mice were tested per group. A dose of 62.5 μg p4119 plasmid DNA in 200 μL D5W was injected by tail vein per mouse. The lungs were harvested after 24 hours and assayed for CAT protein by ELISA assay. […] The upper organic phase was then transferred into scintillation vials containing 5 mL of Ready Safe Liquid Scintillation Cocktail (Beckman, Fullerton, Calif.). Samples were counted for 1 min each. […]
(ELISA stands for enzyme-linked immunosorbent assay.)

The test system of series [2] is CAT reporter protein in lung and serum. Put plainly: IV delivery in rabbits: CAT ELISA, lung and serum. The class given is in vivo. The conditions noted are these: Rabbit #4, lipid only, highest vol. IV, about 24 h. The procedure: This example provides an evaluation of Compound 1 as a suitable lipid in DNA:lipid complexes for transfection in rabbits.
as §1, §2, §3, §4

As to `CCCCCCCC/C=C\CCCCCCCC[N+]1=C(CCCCCCC/C=C\CCCCCCCC)N(CCO)CC1` [Compound 1], in series [1], the “airway foam or excessive pleural fluid” value was “no airway foam or excessive pleural fluid was noted”, the lesions result was “No lesions were noted” and the “lung appearance at necropsy” value was “diffusely red lungs which failed to collapse”. Further, the “lung CAT expression / in vivo activity, in words” value in the series on CAT protein in lungs (IV, mice, both protocols) is on record as “retained the in vivo activity of DOTIM”. The “mean CAT expression level (CAT ELISA)” value in the series on CAT protein in lungs is listed as 306.09 pg/mg. In series [2], the “CAT ELISA, lung” value is 0 pg/mg and the “CAT ELISA, serum” value was 0 pg/mL.

With `CCCCCCCCCCCCCCCCCC[N+]1=C(CCCCCCCCCCCCCCCCC)N(CCO)CC1` [Formula III (Compound 2)], in the series with CAT protein in lungs, the “mean CAT expression level (CAT ELISA)” value was found to be 853.20 pg/mg.
